Eleven molecules from ChEMBL document CHEMBL1201862, “PubChem BioAssay data set” (2004) can be followed below.

What all share (assay): NCI anticancer screen, dose series, 48 h
Test [1] deals with SF-268.
The test system of test [2] is SF-539.
The test system of test [3] is MOLT-4.
Test [4] deals with SR.
The test system of test [5] is COLO 205.
The test system of test [6] is IGROV-1.
For test [7], the system named is A549.
Test [8] deals with UACC-257.
The test system of test [9] is NCI-H460.
Test [10] has as its system LOX IMVI.
The test system of test [11] is K562.
Test [12] concerns SK-MEL-5.
Test [13] concerns UO-31.
Test [14] has as its system HOP-92.
Test [15] concerns M14.
Test [16] has as its system BT-549.
Test [17] has as its system SF-295.
The subject of test [18] is OVCAR-5.
Test [19] has as its system HL-60.

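Each compound was tested at five concentrations against cells in 96-well plates for 48 hours. GI50 is the concentration that inhibits growth by half.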 Calls of active or inactive are those of the source. No stated cut-off is given here; in the data, active = GI50 up to about 1.1 µM and inactive = higher.

Consider `O=C(ON=c1c2ccccc2ccc2ccccc12)c1cc([N+](=O)[O-])cc([N+](=O)[O-])c1`, for which the GI50 is > 100 µM (inactive) in test [1]; > 100 µM (inactive) in test [2]; 31.8 µM (inactive) in test [3]; 35.2 µM (inactive) in test [4]; > 100 µM (inactive) in [5]; > 100 µM (inactive) in [6]. Further, the GI50 in test [7] was 49.8 µM (inactive); in test [8], > 100 µM (inactive); in test [9], > 100 µM (inactive); in [10] it was 90.2 µM (inactive); in test [11] it was 21.8 µM (inactive); in [12], 50.5 µM (inactive). Besides, the GI50 in test [13] is 48 µM (inactive); in test [14] it was 23.1 µM (inactive); in test [15], > 100 µM (inactive); in [16], 54.8 µM (inactive); in test [17], 43.8 µM (inactive); in test [18], > 100 µM (inactive). The GI50 in test [19] is 28 µM (inactive).

Regarding `Cc1ccc(Nc2ncnc3sc(SCc4ccccc4)nc23)cc1`, the GI50 in test [1], in test [2], in test [3], in test [4], in test [5] and in test [6] was > 100 µM (inactive) throughout. Besides, the GI50 in [7] is 88.9 µM (inactive); in test [8], > 100 µM (inactive); in [9], > 100 µM (inactive); in [10], > 100 µM (inactive); in test [11], > 100 µM (inactive); in test [12] it was 82.6 µM (inactive). Also, the GI50 in test [13] was 56 µM (inactive); in [14], 31.3 µM (inactive); in [15], > 100 µM (inactive); in test [16], > 100 µM (inactive); in test [17], 74.8 µM (inactive); in test [18], 43.7 µM (inactive). In [19], the GI50 was > 100 µM (inactive).

Take `CN1C(=O)C(O)CC1c1ccccc1F` (stereo not drawn): the GI50 in test [2], in [3], in test [4], in [5], in test [6] and in test [7] was > 100 µM (inactive) in each case. Moreover, the GI50 in [8], in [9], in test [10], in test [11], in test [12] and in test [13] was > 100 µM (inactive) throughout. Also, the GI50 in test [14], in test [15], in [16], in test [17], in test [18] and in [19] was > 100 µM (inactive) each time.

Consider `Nc1n[n+]2cc(-c3ccccc3)n(CC(=O)c3ccccc3)c2s1`, for which the GI50 is 20.3 µM (inactive) in test [1]; 20.1 µM (inactive) in test [2]; 20.9 µM (inactive) in test [3]; 18.4 µM (inactive) in [4]; 15.3 µM (inactive) in test [5]; 70.8 µM (inactive) in test [6]. Moreover, the GI50 in test [7] is > 100 µM (inactive); in test [8], 25.5 µM (inactive); in test [9], > 100 µM (inactive); in test [10], 17.9 µM (inactive); in test [11], 29.7 µM (inactive); in [12], 23.1 µM (inactive). Further, the GI50 in [13] is 76.2 µM (inactive); in [14], 14.1 µM (inactive); in test [15] it was 21.3 µM (inactive); in [16], 19.6 µM (inactive); in [17], > 100 µM (inactive); in test [18], 18.8 µM (inactive). Also, the GI50 in [19] was 35.5 µM (inactive).

As to `Cn1c2c(c3c(=O)[nH]ncc31)CCCc1ccccc1-2`, the GI50 was 29.2 µM (inactive) in [1]; 35.7 µM (inactive) in [2]; 0.0891 µM (active) in test [3]; 0.0993 µM (active) in test [4]; 17.9 µM (inactive) in [5]; 24.5 µM (inactive) in test [6]. For the same molecule, the GI50 in [7] was 27.2 µM (inactive); in test [8] it was 34.1 µM (inactive); in test [9], 23.6 µM (inactive); in [10], 21.6 µM (inactive); in test [11] it was 11.3 µM (inactive); in test [12], 16.1 µM (inactive). For the same molecule, the GI50 was 22.6 µM (inactive) in [13]; 12.9 µM (inactive) in test [14]; 39.3 µM (inactive) in test [15]; 31.2 µM (inactive) in test [16]; 32.5 µM (inactive) in test [17]; 45.2 µM (inactive) in [18]. Further, the GI50 in test [19] is 0.0817 µM (active).

In the case of `CN(C)c1ccc(C(c2ccc(Cl)cc2)c2ccc(N(C)C)cc2)cc1`, the GI50 in [1] was > 100 µM (inactive); in test [2], > 100 µM (inactive); in test [3], > 100 µM (inactive); in test [4], 57.5 µM (inactive); in test [5], 34.7 µM (inactive); in test [6] it was > 100 µM (inactive). Moreover, the GI50 is > 100 µM (inactive) in test [7]; 60.1 µM (inactive) in test [8]; > 100 µM (inactive) in test [9]; > 100 µM (inactive) in test [10]; 83 µM (inactive) in test [11]; 92.9 µM (inactive) in [12]. Besides, the GI50 in test [13] is > 100 µM (inactive); in test [14], > 100 µM (inactive); in test [15] it was > 100 µM (inactive); in [16], 54.8 µM (inactive); in [17] it was > 100 µM (inactive); in [18], > 100 µM (inactive). Besides, the GI50 in test [19] is > 100 µM (inactive).

As to `CN1CN(c2ccccc2)C2(CCN(Cc3nc4ccccc4s3)CC2)C1=O`, the GI50 in [1] was 20.3 µM (inactive); in test [2] it was 17.8 µM (inactive); in test [3] it was 15.1 µM (inactive); in [4] it was 14.8 µM (inactive); in test [5] it was 18.1 µM (inactive); in test [6] it was 15.7 µM (inactive). Besides, the GI50 is 17.3 µM (inactive) in test [7]; 16.6 µM (inactive) in test [8]; 17.3 µM (inactive) in test [10]; 13.8 µM (inactive) in test [11]; 16.1 µM (inactive) in test [12]; 14.6 µM (inactive) in test [13]. The GI50 was 15 µM (inactive) in test [14]; 13.5 µM (inactive) in [15]; 16.1 µM (inactive) in [16]; 17.9 µM (inactive) in [17]; 17.7 µM (inactive) in test [18]; 11.4 µM (inactive) in test [19].

Consider `Oc1ccc2oc3c(O)c4ccccc4cc3c2c1`, for which the GI50 was 5.87 µM (inactive) in test [1]; 1.75 µM (inactive) in [2]; 1.07 µM (active) in test [3]; 1.72 µM (inactive) in test [4]; 10.6 µM (inactive) in test [5]; 0.851 µM (active) in [6]. Also, the GI50 in test [7] is 24.9 µM (inactive); in [8] it was 52 µM (inactive); in [9] it was 23.5 µM (inactive); in [10], 4.08 µM (inactive); in test [11], 0.0632 µM (active); in test [12], 2.85 µM (inactive). Also, the GI50 in test [13] was 0.695 µM (active); in test [14], 10.7 µM (inactive); in test [15] it was 3.49 µM (inactive); in [16] it was 5.61 µM (inactive); in test [19], 2.28 µM (inactive).

As for `Nc1nc(Cl)c(/C=N\O)c(NCC2(CO)CC(=O)C2)n1`, the GI50 in test [1] was > 100 µM (inactive); in [2], 78.2 µM (inactive); in test [3], 31.8 µM (inactive); in [4], 3.85 µM (inactive); in test [5], > 100 µM (inactive); in test [6], 23.2 µM (inactive). In addition, the GI50 is 30.8 µM (inactive) in [7]; 58.3 µM (inactive) in test [8]; 67.3 µM (inactive) in [9]; 45.8 µM (inactive) in test [10]; 54.2 µM (inactive) in test [11]; 76.7 µM (inactive) in [12]. The GI50 in test [13] was 47.4 µM (inactive); in test [14] it was 40.8 µM (inactive); in test [16], 51.5 µM (inactive); in [17], 56 µM (inactive); in test [18], 85.3 µM (inactive); in test [19], 5.33 µM (inactive).

As for `CC1(C)O[C@H]2Cn3c(c(C#N)c4ccccc43)[C@H]2O1`, the GI50 in test [1], in test [2], in test [4], in test [5], in test [6] and in test [7] was > 100 µM (inactive) throughout. For the same molecule, the GI50 in test [9], in test [12], in test [13], in test [14], in test [15] and in [16] was > 100 µM (inactive) each time. Also, the GI50 in test [17], in [18] and in [19] was > 100 µM (inactive) each time.

For the molecule `CCOC(=O)c1nc2ccc(C(F)(F)F)cc2nc1Oc1ccc(C(=O)OC)cc1`, the GI50 in test [1] was 76.4 µM (inactive); in test [2] it was 77.8 µM (inactive); in test [3], > 100 µM (inactive); in test [4] it was > 100 µM (inactive); in [5] it was > 100 µM (inactive); in [6], 59.4 µM (inactive). In addition, the GI50 in test [8] was > 100 µM (inactive); in [9], 54.5 µM (inactive); in test [10], > 100 µM (inactive); in test [11] it was > 100 µM (inactive); in [12] it was 43.1 µM (inactive); in test [13] it was > 100 µM (inactive). In addition, the GI50 in [14] is 43.2 µM (inactive); in [15], 57.1 µM (inactive); in [16], 39.1 µM (inactive); in [17] it was 54.8 µM (inactive); in [19], > 100 µM (inactive).
